Source: US11214803B2, “Modulators of YAP1 expression” (Ionis Pharmaceuticals, Inc., priority 2019, dated 2022)
Strand notation (5' to 3'): a small letter for the sugar, then the base; units joined by * are phosphorothioate-linked, units joined directly phosphodiester-linked; [ ] holds rarer units or linkages, { } end groups; capitals alone tell only the bases. k = constrained ethyl (cEt); [5mC] = 5-methylcytosine; d = 2'-deoxy (DNA)

Test system: Yap1 mRNA
Assay: Antisense inhibition of human Yap1 in A-431 cells by cEt gapmers, single dose (Example 3, RTS36584)
Type: cell-based
Details: Table 26; Yap1 mRNA by 3-10-3 cEt gapmers targeting SEQ ID NO.: 1, and 2; percent of untreated control
Summary of the method: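 Human epidermoid A-431 cells take up gapmer (2,000 nM, free uptake, ~48 h); Yap1 transcript is then assayed by qRT-PCR with RiboGreen normalization and reported relative to untreated cells. Gapmers carry cEt-modified wings, phosphorothioate linkages and 5-methylcytosine throughout.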

Row | Substance | YAP1 (% UTC)
1 | 1074732 (k[5mC]*k[5mC]*kA*dG*dG*dT*dA*dT*d[5mC]*dA*d[5mC]*dA*dG*kT*kA*k[5mC]; antisense) [compound 1074732] | 30 % UTC
2 | 1074764 (kA*kT*kG*d[5mC]*dT*dA*d[5mC]*d[5mC]*d[5mC]*dA*dA*dT*dA*k[5mC]*kA*kA; antisense) [compound 1074764] | 18 % UTC
3 | 1074796 (k[5mC]*kT*k[5mC]*d[5mC]*dA*dA*dA*dT*d[5mC]*dA*dA*dT*dG*kT*kG*k[5mC]; antisense) [compound 1074796] | 22 % UTC
4 | 1074828 (kA*kT*kA*dA*dA*dA*dT*d[5mC]*d[5mC]*dA*d[5mC]*d[5mC]*dT*kG*kA*kG; antisense) [compound 1074828] | 58 % UTC
5 | 1074860 (kA*kA*kA*dG*dG*dT*dA*dA*d[5mC]*dA*dT*dT*dG*kG*kT*kA; antisense) [compound 1074860] | 9 % UTC
6 | 1074892 (k[5mC]*kT*kG*dA*dA*dG*dT*dT*dT*dA*dG*d[5mC]*d[5mC]*kT*kG*kA; antisense) [compound 1074892] | 42 % UTC
7 | 1074924 (antisense k[5mC]*k[5mC]*kT*dG*d[5mC]*dA*dA*dA*dT*dA*dG*dG*dA*kG*kA*kG) [compound 1074924] | 87 % UTC
8 | 1074956 (antisense kA*k[5mC]*k[5mC]*d[5mC]*dG*dG*dG*dT*dT*dT*dT*dT*dG*kT*k[5mC]*kA) [compound 1074956] | 104 % UTC
9 | 1074988 (antisense kA*k[5mC]*k[5mC]*dG*d[5mC]*dG*dG*d[5mC]*dG*dG*dA*dG*dT*kG*kG*kA) [compound 1074988] | 94 % UTC

Same assay, conditions: Table 27; Yap1 mRNA by 3-10-3 cEt gapmers targeting SEQ ID NO.: 1, and 2; percent of untreated control

Row | Substance | YAP1 (% UTC)
10 | 1074733 (kG*k[5mC]*k[5mC]*dA*dG*dG*dT*dA*dT*d[5mC]*dA*d[5mC]*dA*kG*kT*kA; antisense) [compound 1074733] | 47 % UTC
11 | 1074765 (k[5mC]*kA*kA*dT*dG*d[5mC]*dT*dA*d[5mC]*d[5mC]*d[5mC]*dA*dA*kT*kA*k[5mC]; antisense) [compound 1074765] | 34 % UTC
12 | 1074797 (kA*k[5mC]*kT*d[5mC]*d[5mC]*dA*dA*dA*dT*d[5mC]*dA*dA*dT*kG*kT*kG; antisense) [compound 1074797] | 31 % UTC
13 | 1074829 (kG*kG*kA*dT*dA*dA*dA*dA*dT*d[5mC]*d[5mC]*dA*d[5mC]*k[5mC]*kT*kG; antisense) [compound 1074829] | 92 % UTC
14 | 1074861 (kT*kG*k[5mC]*dT*d[5mC]*dT*dT*dA*d[5mC]*dA*dT*d[5mC]*dT*kA*kA*kA; antisense) [compound 1074861] | 23 % UTC
15 | 1074893 (antisense kG*k[5mC]*kT*dG*dA*dA*dG*dT*dT*dT*dA*dG*d[5mC]*k[5mC]*kT*kG) [compound 1074893] | 78 % UTC
16 | 1074925 (antisense kG*k[5mC]*k[5mC]*dT*dG*d[5mC]*dA*dA*dA*dT*dA*dG*dG*kA*kG*kA) [compound 1074925] | 94 % UTC
17 | 1074957 (antisense kA*kA*k[5mC]*d[5mC]*d[5mC]*dG*dG*dG*dT*dT*dT*dT*dT*kG*kT*k[5mC]) [compound 1074957] | 102 % UTC

Same assay, conditions: Table 28; Yap1 mRNA as percent of untreated control; 3-10-3 cEt gapmers targeting SEQ ID NO.: 1, and 2

Row | Substance | YAP1 (% UTC)
18 | 1074734 (kT*kG*k[5mC]*d[5mC]*dA*dG*dG*dT*dA*dT*d[5mC]*dA*d[5mC]*kA*kG*kT; antisense) [compound 1074734] | 51 % UTC
19 | 1074830 (kG*kA*kG*dG*dA*dT*dA*dA*dA*dA*dT*d[5mC]*d[5mC]*kA*k[5mC]*k[5mC]; antisense) [compound 1074830] | 89 % UTC
20 | 1074862 (kT*kA*kT*dG*dA*dG*d[5mC]*dA*dT*dG*d[5mC]*dT*d[5mC]*kT*kT*kA; antisense) [compound 1074862] | 56 % UTC
21 | 1074894 (antisense kT*kG*k[5mC]*dT*dG*dA*dA*dG*dT*dT*dT*dA*dG*k[5mC]*k[5mC]*kT) [compound 1074894] | 79 % UTC
22 | 1074926 (antisense k[5mC]*kA*kA*d[5mC]*dA*dG*dG*d[5mC]*d[5mC]*dT*dG*d[5mC]*dA*kA*kA*kT) [compound 1074926] | 111 % UTC
23 | 1074958 (antisense kT*kA*kA*d[5mC]*d[5mC]*d[5mC]*dG*dG*dG*dT*dT*dT*dT*kT*kG*kT) [compound 1074958] | 107 % UTC

Same assay, conditions: Table 29; Yap1 mRNA as percent of untreated control; 3-10-3 cEt gapmers targeting SEQ ID NO.: 1, and 2

Row | Substance | YAP1 (% UTC)
24 | 1074735 (kG*kA*kT*d[5mC]*dA*dA*dA*dG*d[5mC]*dA*d[5mC]*dT*dG*kT*kG*k[5mC]; antisense) [compound 1074735] | 117 % UTC
25 | 1074767 (kT*kT*kA*dT*d[5mC]*d[5mC]*d[5mC]*dA*dA*dT*dG*d[5mC]*dT*kA*k[5mC]*k[5mC]; antisense) [compound 1074767] | 12 % UTC
26 | 1074799 (kT*kG*k[5mC]*dT*dT*dT*dG*dG*dA*dA*dG*dA*dT*k[5mC]*kT*kG) [compound 1074799] | 8 % UTC
27 | 1074831 (k[5mC]*kG*kA*dG*dG*dA*dT*dA*dA*dA*dA*dT*d[5mC]*k[5mC]*kA*k[5mC]; antisense) [compound 1074831] | 35 % UTC
28 | 1074863 (kA*kT*kA*dT*dG*dA*dG*d[5mC]*dA*dT*dG*d[5mC]*dT*k[5mC]*kT*kT; antisense) [compound 1074863] | 41 % UTC
29 | 1074895 (antisense kT*k[5mC]*k[5mC]*dT*dA*dT*dG*d[5mC]*dT*dG*dA*dA*dG*kT*kT*kT) [compound 1074895] | 60 % UTC
30 | 1074927 (antisense kT*kA*k[5mC]*dA*dA*d[5mC]*dA*dG*dG*d[5mC]*d[5mC]*dT*dG*k[5mC]*kA*kA) [compound 1074927] | 74 % UTC
31 | 1074959 (antisense kT*kT*kA*dA*d[5mC]*d[5mC]*d[5mC]*dG*dG*dG*dT*dT*dT*kT*kT*kG) [compound 1074959] | 128 % UTC

Same assay, conditions: Table 34; Yap1 mRNA as percent of untreated control; 3-10-3 cEt gapmers targeting SEQ ID NO: 1 and 2; single dose

Row | Substance | YAP1 (% UTC)
32 | 1074740 (kG*kG*kA*d[5mC]*dT*d[5mC]*dT*dT*dA*dG*dG*dT*d[5mC]*kT*k[5mC]*k[5mC]; antisense) [compound 1074740] | 75 % UTC
33 | 1074772 (kA*kG*kT*dT*dA*dA*dA*dA*dT*d[5mC]*dT*dT*dA*kT*k[5mC]*k[5mC]; antisense) [compound 1074772] | 80 % UTC
34 | 1074804 (kT*kA*kG*d[5mC]*dA*dA*dA*dG*dT*d[5mC]*dA*d[5mC]*dT*kT*k[5mC]*k[5mC]; antisense) [compound 1074804] | 15 % UTC
35 | 1074836 (kA*kA*k[5mC]*dA*dA*d[5mC]*dA*dT*dG*d[5mC]*dT*dT*dG*k[5mC]*kG*kA; antisense) [compound 1074836] | 27 % UTC
36 | 1074868 (kG*kT*kA*d[5mC]*d[5mC]*dT*dA*dA*d[5mC]*dA*dT*dA*dT*kG*kA*kG; antisense) [compound 1074868] | 74 % UTC
37 | 1074900 (antisense kA*kT*kT*dA*dA*d[5mC]*dT*dT*dT*dT*dG*dG*dG*k[5mC]*kA*kA) [compound 1074900] | 40 % UTC
38 | 1074932 (antisense kG*kG*kA*dG*dA*d[5mC]*dT*dA*dT*dA*d[5mC]*dA*dA*k[5mC]*kA*kG) [compound 1074932] | 88 % UTC
39 | 1074964 (antisense kT*kT*kA*dG*dG*d[5mC]*dA*dA*dG*d[5mC]*dA*dG*d[5mC]*kT*kA*kA) [compound 1074964] | 112 % UTC

Same assay, conditions: Table 35; Yap1 mRNA as percent of untreated control; 3-10-3 cEt gapmers targeting SEQ ID NO: 1 and 2; single dose

Row | Substance | YAP1 (% UTC)
40 | 1074741 (kA*kA*kG*dG*dA*d[5mC]*dT*d[5mC]*dT*dT*dA*dG*dG*kT*k[5mC]*kT; antisense) [compound 1074741] | 78 % UTC
41 | 1074773 (k[5mC]*kA*kG*dT*dT*dA*dA*dA*dA*dT*d[5mC]*dT*dT*kA*kT*k[5mC]; antisense) [compound 1074773] | 94 % UTC
42 | 1074805 (kG*kT*kA*dG*d[5mC]*dA*dA*dA*dG*dT*d[5mC]*dA*d[5mC]*kT*kT*k[5mC]; antisense) [compound 1074805] | 9 % UTC
43 | 1074837 (kT*kA*kA*d[5mC]*dA*dA*d[5mC]*dA*dT*dG*d[5mC]*dT*dT*kG*k[5mC]*kG; antisense) [compound 1074837] | 11 % UTC
44 | 1074869 (kA*kG*kT*dA*d[5mC]*d[5mC]*dT*dA*dA*d[5mC]*dA*dT*dA*kT*kG*kA; antisense) [compound 1074869] | 31 % UTC
45 | 1074901 (antisense kT*kA*kT*dT*dA*dA*d[5mC]*dT*dT*dT*dT*dG*dG*kG*k[5mC]*kA) [compound 1074901] | 61 % UTC
46 | 1074933 (antisense kA*kG*kG*dA*dG*dA*d[5mC]*dT*dA*dT*dA*d[5mC]*dA*kA*k[5mC]*kA) [compound 1074933] | 72 % UTC
47 | 1074965 (antisense kG*kT*kG*dT*dT*dT*dA*dG*dG*d[5mC]*dA*dA*dG*k[5mC]*kA*kG) [compound 1074965] | 20 % UTC
